Where a name gives a salt, the structure may show the parent alone.
Tests used:
[1] = test system: thevetin-induced arrhythmia in guinea pigs; experiment: Thevetin (cardiac glycoside)-induced arrhythmia in guinea pigs; type: in vivo, guinea pig
Protocol: Male guinea pigs, weighing 300-500 g each, from Summit View Farms, Belvidere, N.J., were anesthetized by intraperitoneal adminstration of urethan at 1500 mg/kg. The animals were then restrained in a supine position. Electrocardiogram leads were attached to the four limbs and Lead II of the electrocardiogram was monitored.
The neck region was exposed and the jugular vein was cannulated. The test compounds were dissolved in saline and administered intravenously at the indicated doses, via a cannula which was then flushed with saline. Five minutes after the test compound was administered, thevetin dissolved in saline was administered by infusion through a cannula at a dose of 0.1 mg/kg/minute in a volume of 0.1 ml. The time until the P wave of the electrocardiogram disappeared was determined.

[2] = test system: spontaneously hypertensive rats; experiment: Hypotensive activity in spontaneously hypertensive rats (MABP); type: in vivo, rat (Okamoto strain); details: SHR, gavage, two doses of 10 mg/kg or less 24 h apart, MABP at 28 h; average baseline 160±1.5 mm Hg
Summary of the method: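 Male 16-week Okamoto spontaneously hypertensive rats dosed by gavage in 2% starch at 10 mg/kg or less with 0.9% NaCl loading 25 ml/kg; identical dose without saline given 24 hours later. Mean arterial blood pressure measured 28 hours after first dose; 1 to 4 rats per compound.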

[3] = target: T1, thromboxane synthetase enzyme (Rattus norvegicus, UniProt P49430); experiment: Thromboxane synthetase enzyme inhibition (TXB2 formation in washed platelets, RIA); type: cell-based, spontaneously hypertensive rat; details: 1×10^-4 Molar, SHR platelets, 10 min at 37° C.; for inhibition at 100 µM: read-out: % Inhibition (Thromboxane Synthetase Enzyme Inhibition)
T1 construct: endogenous in cells; host or cells: washed platelets from arterial blood of male Okamoto-Aoki spontaneously hypertensive rats (animals from Taconic Farms, Germantown, N.Y.)
T1 sequence (P49430 1-533): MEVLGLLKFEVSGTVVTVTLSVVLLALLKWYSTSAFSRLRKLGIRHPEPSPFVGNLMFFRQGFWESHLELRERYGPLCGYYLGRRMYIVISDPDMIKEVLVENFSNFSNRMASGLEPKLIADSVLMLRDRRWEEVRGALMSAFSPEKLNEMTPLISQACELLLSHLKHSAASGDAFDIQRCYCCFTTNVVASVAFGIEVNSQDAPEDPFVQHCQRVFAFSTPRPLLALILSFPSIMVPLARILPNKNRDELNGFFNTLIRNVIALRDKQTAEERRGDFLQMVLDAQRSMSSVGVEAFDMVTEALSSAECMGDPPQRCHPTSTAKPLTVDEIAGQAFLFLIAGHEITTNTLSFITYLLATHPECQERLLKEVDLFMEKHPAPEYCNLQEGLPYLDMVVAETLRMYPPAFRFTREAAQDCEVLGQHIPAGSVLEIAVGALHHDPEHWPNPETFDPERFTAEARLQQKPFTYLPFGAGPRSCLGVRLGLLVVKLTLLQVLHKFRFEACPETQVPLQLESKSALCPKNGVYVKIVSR
Protocol: The blood was diluted with 3 ml cold saline and centrifuged at room temperature for 15 min at 468×g. The platelet rich plasma (PRP) was separated. The platelets were isolated by certrifuging the PRP for 10 minutes at 1060×g and washed in 4 ml cold oxygenated Krebs phosphate buffer, pH 7.4. The chilled platelets recovered from centrifuging at 800×g for 10 minutes were resuspended in oxygenated Krebs phosphate buffer and diluted to contain 4.0-6.0×10^4 platelets/micro-liters. The inhibition of TX formation was studied by determining the concentration of thromboxane B2 (TXB2), the stable hydrolysis product of TXA2. Assay samples prepared on ice, contained 200 micro-liters platelet suspension, 50 micro-liters saline, and 50 micro-liters […] (saline) or drug under study. The test drug (0.003 mole) was dissolved in 5 ml of saline. […] The assay samples were incubated for 10 minutes at 37° C. in a metabolic shaker at about 60 rpm. The reaction was terminated by immersing the tubes in an ice bath and adding 50 micro-liters of 0.5M citric acid. The samples were centrifuged for 10 minutes at 2000 rpm at 4° C., and the supernatants were decanted.

[4] = intravenous doses as high as 20 mg/kg

| SMILES | Avg. MABP in mm Hg (No. of Rats) [2] | inhibition at 100 µM [3] | other results |
| --- | --- | --- | --- |
| CC(C)NC[C@H](O)COc1cccc2ccccc12 (racemic) [Propanolol, reference compound] | – | – | activity in thevetin-induced arrhythmia test ([1]; intravenous dose of 2 mg/kg): active; time protected before arrhythmia occurred ([1]; intravenous dose of 2 mg/kg): 47.0 ± 4.1 min |
| C(=C/Cn1ccnc1)/CNC1=Nc2cccc3cccc1c23.Cl.Cl [(Z)-N-(4-(1H-imidazol-1-yl)-2-butenyl)benz(cd)indol-2-amine, dihydrochloride] | 77 mm Hg | 97% | – |
| C(=C/Cn1ccnc1)/CNC1=Nc2cccc3cccc1c23 [(Z)-N-(4-(1H-imidazol-1-yl)-2-butenyl)benz(cd)indol-2-amine, hydriodide] | 106 mm Hg | – | % Inhibition (Thromboxane Synthetase Enzyme Inhibition) [3]: 100% |
| O=C(O)c1ccc(OCCn2ccnc2)cc1 [Dazoxiben hydrochloride, 4-(2-(1H-imidazol-l-yl)ethoxy)benzoic acid, monohydrochloride, reference compound] | – | – | activity in thevetin-induced arrhythmia test [1, 4]: inactive; time before arrhythmia occurred [1, 4]: 22.2 ± 1.9 min |
| O=C(O)/C=C/C(=O)O.c1ccc(CCNC2=Nc3cccc4cccc2c34)nc1 [N-(2-(2-Pyridinyl)ethyl)benz(cd)indol-2-amine, fumarate] | 137 mm Hg | 94% | – |
| O=C(O)/C=C/C(=O)O.c1ccc(OCCNC2=Nc3cccc4cccc2c34)nc1 [N-(2-(2-Pyridinyloxy)ethyl)benz(cd)indol-2-amine fumarate] | 140 mm Hg | 88% | – |
| c1cc2c3c(cccc3c1)C(NCCc1ccncc1)=N2 [N-(2-(4-Pyridinyl)ethyl)benz(cd)indol-2-amine, sesqui-fumarate] | 115 mm Hg | 88% | – |
| O=C(O)/C=C/C(=O)O.c1coc(CNC2=Nc3cccc4cccc2c34)c1 [N-(2-Furanylmethyl)benz(cd)indol-2-amine fumarate] | 142 mm Hg | 93% | – |
| CC(CNC1=Nc2cccc3cccc1c23)Cc1cccnc1.O=C(O)/C=C/C(=O)O (centres unmarked) [N-(2-Methyl-3-(3-pyridinyl)propyl)benz(cd)indol-2-amine, fumarate] | 124 mm Hg | 99% | – |
| O=C(O)/C=C/C(=O)O.c1csc(CNC2=Nc3cccc4cccc2c34)c1 [N-(2-Thienylmethyl)benz(cd)indol-2-amine, fumarate] | 141 mm Hg | 93% | – |
| O=C(O)/C=C/C(=O)O.c1cc2c3c(cccc3c1)C(NCCCn1cnc3ccccc31)=N2 [N-(3-(1H-benzimidazol-1-yl)propyl)benz(cd)indol-2-amine, fumarate] | 123 mm Hg | – | % Inhibition (Thromboxane Synthetase Enzyme Inhibition) [3]: 90% |
| c1cc2c3c(cccc3c1)C(NCCCn1cnc3ccccc31)=N2 [N-(3-(1H-benzimidazol-1-yl)propyl)benz(cd)indol-2-amine] | 124 mm Hg | – | % Inhibition (Thromboxane Synthetase Enzyme Inhibition) [3]: 60% |
| CC(CNC1=Nc2cccc3cccc1c23)Cn1ccnc1.Cl.Cl (centres unmarked) [N-(3-(1H-imidazol-1-yl)-2-methylpropyl)benz(cd)indol-2-amine, dihydrochloride] | 113 mm Hg | 95% | – |
| CC(CCNC1=Nc2cccc3cccc1c23)n1ccnc1 (stereo not drawn) [N-(3-(1H-imidazol-l-yl)butyl)benz(cd) indol-2-amine, dihydrochloride] | 104 mm Hg | 92% | – |
| CC(CCNC1=Nc2cccc3cccc1c23)c1cccnc1 (centres unmarked) [N-(3-(3-Pyridinyl)butyl)benz(cd)indol-2-amine] | 110 mm Hg | 96% | – |
| O=C(O)/C=C/C(=O)O.c1cncc(CCCNC2=Nc3cccc4cccc2c34)c1 [N-(3-(3-Pyridinyl)propyl)benz(cd)indol-2-amine, fumarate] | 93 mm Hg | 97% | – |

| SMILES | Avg. MABP in mm Hg (No. of Rats) [2] | inhibition at 100 µM [3] | other results |
| --- | --- | --- | --- |
| O=C(O)/C=C/C(=O)O.c1cncc(OCCCNC2=Nc3cccc4cccc2c34)c1 [N-(3-(3-Pyridinyloxy)propyl)benz(cd)indol-2-amine, fumarate] | 116 mm Hg | 94% | – |
| CC(CCCNC1=Nc2cccc3cccc1c23)n1ccnc1.O=C(O)/C=C/C(=O)O (centres unmarked) [N-(4-(1H-imidazol-1-yl)pentyl)benz(cd)indol-2-amine, fumarate] | 97 mm Hg | 99% | – |
| c1ccc(CCCCNC2=Nc3cccc4cccc2c34)nc1 [N-(4-(2-Pyridinyl)butyl)benz(cd)indol-2-amine, sesqui-fumarate] | 106 mm Hg | 89% | – |
| c1cc2c3c(cccc3c1)C(NCc1ccncc1)=N2 [N-(4-Pyridinylmethyl)benz(cd)indol-2-amine, sesqui-fumarate] | 90 mm Hg | 97% | – |
| CC(CCNC1=Nc2cccc3cccc1c23)CCn1ccnc1 (centres unmarked) [N-(5-(1H-imidazol-1-yl)-3-methylpentyl)benz(cd)indol-2-amine,dihydrochloride] | 92 mm Hg | 100% | – |
| O=C(O)/C=C/C(=O)O.c1cc2c3c(cccc3c1)C(NCCCCCn1ccnc1)=N2 [N-(5-(1H-imidazol-1-yl)pentyl)benz(cd)indol-2-amine, fumarate] | 111 mm Hg | 95% | – |
| Cl.Cl.c1cc2c3c(cccc3c1)C(NCCCCCCCCn1ccnc1)=N2 [N-(8-(1H-imidazol-1-yl)octyl)benz(cd)indol-2-amine, dihydrochloride] | 111 mm Hg | 100% | – |
| c1cc2c3c(cccc3c1)C(NCCCCCCCCCCCCn1ccnc1)=N2 [N-(12-(1H-imidazol-1-yl)dodecyl)benz(cd)indol-2-amine] | 133 mm Hg | 97% | – |
| O=C(O)/C=C/C(=O)O.c1cc2c3c(cccc3c1)C(NCc1ccc(Cn3ccnc3)cc1)=N2 [N-((4-(1H-imidazol-1-ylmethyl)phenyl)methyl)benz(cd)indol-2-amine, fumarate] | 121 mm Hg | 100% | – |
| O=C(c1ccccc1)N(CCCn1ccnc1)C1=Nc2cccc3cccc1c23 [N-Benz(cd)indol-2-yl-N-(3-(1H-imidazol-1-yl)propyl)benzamide] | 95 mm Hg | 94.5% | – |
| O=S(=O)(c1ccccc1)N(CCCn1ccnc1)C1=Nc2cccc3cccc1c23 [N-Benz(cd)indol-2-yl-N-(3-(1H-imidazol-1-yl)propyl)benzenesulfonamide] | 135 mm Hg | 93% | – |
| CC(=O)N(CCCc1cccnc1)C1=Nc2cccc3cccc1c23 [N-Benz(cd)indol-2-yl-N-(3-(3-pyridinyl)propyl)acetamide] | 85 mm Hg | 95% | – |
| COc1ccccc1C(=O)N(CCCCn1ccnc1)C1=Nc2cccc3cccc1c23 [N-Benz(cd)indol-2-yl-N-(4-(1H-imidazol-1-yl)butyl)-2-methoxybenzamide] | 76 mm Hg | 93% | – |
| CC(=O)N(CCCCn1ccnc1)C1=Nc2cccc3cccc1c23 [N-Benz(cd)indol-2-yl-N-(4-(1H-imidazol-1-yl)butyl)acetamide] | 81 mm Hg | 98.5% | – |
| Cc1ccc(S(=O)(=O)Nc2ccc3c4c(cccc24)C(NCCCCn2ccnc2)=N3)cc1 [monoacetate] | 125 mm Hg | 79% | – |

From US5081131A, “Omega-((hetero)alkyl)benz(cd)-indol-2-amines” (American Cyanamid Company, priority 1988, dated 1992)
